≈ marks a conversion by molar mass, not a printed value. Where two headings read alike, the source gives them in different places.
Key:
[1] = DPPH free radical scavenging assay; type: biochemical; details: concentration of 20µg/l, mean ± SD of three experiments
Experimental: Antioxidant activity of the newly synthesized 13a–i, 14a–i, 11a–c and 12a–c were assessed in terms of hydrogen-donating or radical-scavenging ability via the stable free radical 1,1-diphenyl-2-picrylhydrazyl (DPPH) using ascorbic acid as a reference at a concentration of […].
The free radical scavenging activity (RSA) was assessed spectrophotometically at 517 nm via decoloration of the solution of the DPPH (1,1-diphenyl-2-picrylhydrazyl) radical according to Brand-Williams et al. 1995 [32]. DPPH solution was prepared by dissolving of 20 mg of DPPH in one liter of dimethylsulphoxide (DMSO). A freshly prepared DPPH solution was used for the assay. Each of the tested compounds 11a–c, 12a–c, 13a–i, 14a–i and 15a,b were dissolved in DMSO (1mg/mL). A volume of […] of a DMSO stock solution of the test compounds was added to 2 mL of freshly prepared DPPH in DMSO solution. The mixtures were shaken in a vortex (2500 rpm) for 1 min and then left to stand for 15, 30, 45 and 60 min in the dark room. The absorbance was measured at 517 nm against blank using UV visible spectrophotometer 2401 PC (Shimadzu, Kyoto, Japan). Lower absorbance of the reaction mixture indicated higher free radical scavenging activity was analyzed from the graph plots of the inhibition percentage against the compound concentration. The experiment was carried out in triplicate and averaged. The scavenging activity was calculated according to the following formula:Scavenging ability (%) = (A517 of control - A517of sample / A 517 of control) ×100(1)

[2] = test system: HCT-116 (human colon cancer); test: MTT cytotoxicity assay, HCT-116; type: cell-based; details: for inhibition at 100 µg/mL / IC50: Homo sapiens; for inhibition at 100 µg/mL: HCT-116, 100 µg/ml, 48 h, read-out: Growth Inhibition (%) HCT-116; for IC50: HCT-116, 48 h
Experimental: (§1) MCF-7 (human breast cancer), HCT-116 (human colon cancer) and HepG2 (human liver cancer) cell lines were obtained from Karolinska Institute, Stockholm, Sweden. All cells were maintained in RPMI 1640 medium. The media were supplemented with 10% heat-inactivated fetal bovine serum plus 1% antibiotic-antimycoticmixture (10,000 U/mL of potassium penicillin, 10,000 μg/mL of streptomycin sulfate, 25 μg/mL of amphotericin B and 1% of L glutamine (Biowest, USA)). BJ-1 of a human skin fibroblast derived from normal foreskin was obtained from ATCC® CRL-2522™ as a frozen ampoule with about 1 × 10^6 cells per 1 ml volume. BJ-1 was maintained in MEM with 2 mM of L-glutamine and Earle’s salts medium.
(§2) Cell viability was studied using the MTT 3-(4,5-dimethylthiazol-2-yl)-2,5-diphenyl-tetrazolium bromide (Bio Basic Canada Inc. Toronto, Canada) assay [33]. The steps were executed in a sterile laminar air flow cabinet biosafety class II level (Baker, SG403INT; Sanford, ME, USA). All incubations were carried out at 37 °C in a 5% CO2 incubator under a humidified atmosphere of 95% (Sheldon, TC2323; Cornelius, OR, USA). Cells were seeded into 96-well microtiter plastic plates at a concentration of (10^4 cells/well) and allowed to adhere for 24 h. The medium was aspirated and then added to the cells with the test compounds 11a–c, 12a–c, 13a–i, 14a–i and 15a,b at a single dose of 100 μg/mL in DMSO. After incubation of the medium for 48 h, 40 μL of MTT salt (2.5 μg/mL) was added to each well and then incubated for an additional 4 h. To stop the reaction and dissolve any formed formazan crystals, 200 μL of 10% sodium dodecyl sulfate (SDS) were added to each well and incubated overnight at 37 °C. The amount of formazan product was measured at 595 nm with a reference wavelength of 690 nm as a background using a microplate reader (Bio-Rad Laboratories, model 3350, California, USA). For the untreated cells (negative control), the medium was added instead of the tested compounds. […] Dimethylsulfoxide (DMSO) was the vehicle used for dissolution of the testing compound, and its final concentration on the cells was less than 0.2%. At the same dilution, the solvent concentration was the same for all drugs and between the control and drug treatments.

[3] = test system: MCF-7 (human breast cancer); test: MTT cytotoxicity assay, MCF-7; type: cell-based; details: for inhibition at 100 µg/mL: MCF7, 100 µg/ml, 48 h, read-out: Growth Inhibition (%) MCF-7; for IC50: MCF7, 48 h post-treatment
Experimental: as §1, §2

[4] = test system: normal skin fibroblast cells (BJ-1); test: MTT cytotoxicity assay, normal skin fibroblast BJ-1; type: cell-based; details: Homo sapiens, 48 h, read-out: Growth Inhibition (%) BJ-1
Experimental: as §1, §2

[5] = test system: HepG-2 (human liver cancer); test: MTT cytotoxicity assay, HepG-2; type: cell-based; details: for inhibition at 100 µg/mL: HepG2, 100 µg/ml, 48 h, read-out: Growth Inhibition (%) HepG-2; for IC50: HepG2, 48 h post-treatment
Experimental: as §1, §2

[6] = 15 min, read-out: Scavenging Activity (%) on DPPH radicals at 15 min
[7] = 30 min, read-out: Scavenging Activity (%) on DPPH radicals at 30 min
[8] = 45 min, read-out: Scavenging Activity (%) on DPPH radicals at 45 min
[9] = 60 min, read-out: Scavenging Activity (%) on DPPH radicals at 60 min

Row | SMILES | inhibition [1, 6] | inhibition [1, 7] | inhibition [1, 8] | inhibition [1, 9] | inhibition at 100 µg/mL [2] | IC50 ([2]; 48 h post-treatment) | inhibition at 100 µg/mL [3] | IC50 [3] | inhibition at 100 µg/mL [4] | melting point | inhibition at 100 µg/mL [5] | IC50 [5] | IC50 HCT-116 ([2]; 48 h post-treatment)
1 | O=C(c1ccc(Cl)cc1)n1cc(C2=NN(c3ccccc3)C3(C2)C(=O)Nc2ccccc23)c2ccccc21 (centres unmarked) [Compound 14f, 5’-(N-(4-Chlorobenzoyl)-1H-indol-3-yl)-2’-phenyl-2’,4’-dihydrospiro(indoline-3,3’-pyrazol)-2-one] | 9.05 ± 1.63% | 10.2 ± 1.83% | 16.2 ± 1.21% | 22.9 ± 1.62% | 91.4% | 35.8 mg/L (≈ 69.2 µM) | 89.3% | 31.2 mg/L (≈ 60.3 µM) | 14.5% | 162 to 164 °C | – | – | –
2 | O=C(c1ccc(Cl)cc1)n1cc(C2=NNC3(C2)C(=O)Nc2ccccc23)c2ccccc21 (centres unmarked) [Compound 13f, 5’-(N-(4-Chloro-benzoyl)-1H-indol-3-yl)-2’,4’-dihydrospiro(indoline-3,3’-pyrazol)-2-one] | 17.9 ± 1.62% | 28.3 ± 1.61% | 34.3 ± 1.27% | 40.7 ± 1.54% | 86.5% | 28.4 mg/L (≈ 64.4 µM) | 79.7% | 32.1 mg/L (≈ 72.8 µM) | 16.4% | 202 to 204 °C | 72.8% | 83.6 mg/L (≈ 190 µM) | –
3 | CCn1cc(C2=NN(c3ccccc3)C3(C2)C(=O)Nc2ccccc23)c2ccccc21 (centres unmarked) [Compound 14b, 5’-(N-Ethyl-1H-indol-3-yl)-2’-phenyl-2’,4’-dihydrospiro(indoline-3,3’-pyrazol)-2-one] | 42.4 ± 1.45% | 58.1 ± 1.28% | 60.3 ± 1.66% | 66 ± 1.64% | 84.6% | 40.1 mg/L (≈ 98.6 µM) | 80.3% | 36.3 mg/L (≈ 89.3 µM) | 8.1% | 108 to 110 °C | – | – | –
4 | O=C(c1ccccc1)n1cc(C2=NN(c3ccccc3)C3(C2)C(=O)Nc2ccccc23)c2ccccc21 (centres unmarked) [Compound 14d, 5’-(N-Benzoyl-1H-indol-3-yl)-2’-phenyl-2’,4’-dihydrospiro(indoline-3,3’-pyrazol)-2-one] | 39.9 ± 1.75% | 41.8 ± 1.49% | 45 ± 1.37% | 55.4 ± 1.33% | 96.2% | 30.7 mg/L (≈ 63.6 µM) | 94% | 31.6 mg/L (≈ 65.5 µM) | 9.5% | 100 to 102 °C | – | – | –
5 | O=C1Nc2ccccc2C12CC(c1cn(S(=O)(=O)c3ccc(Cl)cc3)c3ccccc13)=NN2c1ccccc1 (centres unmarked) [Compound 14h, 5’-(N-(4-Chloro-benzenesulfonyl)-1H-indol-3-yl)-2’-phenyl-2’,4’-dihydrospiro(indoline-3,3’-pyrazol)-2-one] | 57.9 ± 1.36% | 67.3 ± 1.35% | 72 ± 1.82% | 86 ± 2.17% | 96.2% | – | 94% | – | 86.5% | 110 to 112 °C | – | – | –
6 | O=C1Nc2ccccc2C12CC(c1c[nH]c3ccccc13)=NN2c1ccccc1 (centres unmarked) [Compound 14a, 5’-(1H-Indol-3-yl)-2’-phenyl-2’,4’-dihydrospiro(indoline-3,3’-pyrazol)-2-one] | 41.1 ± 2.05% | 51.5 ± 1.91% | 54 ± 2.06% | 59.2 ± 2.14% | 91.2% | 36.2 mg/L (≈ 95.7 µM) | 90.4% | 32.3 mg/L (≈ 85.4 µM) | 14.2% | 124 to 126 °C | – | – | –
7 | O=C1O[C@H]([C@@H](O)CO)C(O)=C1O [Ascorbic acid, ascorbic acid, reference compound] | 94.4 ± 1.74% | 97.5 ± 1.32% | 98.78 ± 0.94% | 99.67 ± 0.28% | – | – | – | – | – | – | – | – | –
8 | O=C1Nc2ccccc2C12CC(c1cn(S(=O)(=O)c3ccccc3[N+](=O)[O-])c3ccccc13)=NN2c1ccccc1 (centres unmarked) [Compound 14i, 5’-(N-(2-Nitro-benzenesulfonyl)-1H-indol-3-yl)-2’-phenyl-2’,4’-dihydrospiro(indoline-3,3’-pyrazol)-2-one] | – | – | – | – | 35.1% | – | 52.3% | – | 78.6% | 152 to 154 °C | – | – | –
9 | O=C1Nc2ccccc2C12CC(c1cn(Cc3ccccc3)c3ccccc13)=NN2c1ccccc1 (centres unmarked) [Compound 14c, 5’-(N-Benzyl-1H-indol-3-yl)-2’-phenyl-2’,4’-dihydrospiro(indoline-3,3’-pyrazol)-2-one] | 14.8 ± 1.36% | 22.6 ± 1.79% | 26.3 ± 1.23% | 39.5 ± 1.61% | 91.8% | 40.5 mg/L (≈ 86.4 µM) | 92.3% | 32.5 mg/L (≈ 69.4 µM) | 13.6% | 96 to 98 °C | – | – | –
10 | O=C(c1ccccc1Cl)n1cc(C2=NN(c3ccccc3)C3(C2)C(=O)Nc2ccccc23)c2ccccc21 (centres unmarked) [Compound 14e, 5’-(N-(2-Chlorobenzoyl)-1H-indol-3-yl)-2’-phenyl-2’,4’-dihydrospiro(indoline-3,3’-pyrazol)-2-one] | 17.9 ± 1.23% | 28.2 ± 1.27% | 30.9 ± 1.98% | 34.9 ± 1.72% | 35.1% | – | 85.3% | 54 mg/L (≈ 104 µM) | 16.6% | 78 to 80 °C | – | – | –
11 | O=C1Nc2ccccc2C12CC(c1cn(S(=O)(=O)c3ccc(Br)cc3)c3ccccc13)=NN2c1ccccc1 (centres unmarked) [Compound 14g, 5’-(N-(4-Bromo-benzenesulfonyl)-1H-indol-3-yl)-2’-phenyl-2’,4’-dihydrospiro(indoline-3,3’-pyrazol)-2-one] | 8.39 ± 1.14% | 11.9 ± 1.23% | 14.1 ± 2.01% | 26.6 ± 2.13% | 92.1% | 38 mg/L (≈ 63.6 µM) | 90.6% | 37.4 mg/L (≈ 62.6 µM) | 16% | 132 to 134 °C | – | – | –
12 | COc1cccc2c1C(=O)c1c(O)c3c(c(O)c1C2=O)C[C@@](O)(C(=O)CO)C[C@@H]3O[C@H]1C[C@H](N)[C@H](O)[C@H](C)O1 [Doxorubicin, doxorubicin, reference compound] | – | – | – | – | 100% | 21.6 mg/L (≈ 39.7 µM) | 96.8% | 37.6 mg/L (≈ 69.2 µM) | 0% | – | 100% | 21.6 mg/L (≈ 39.7 µM) | 26.1 mg/L (≈ 48 µM)
13 | O=C1Nc2ccccc2C12CC(c1cn(S(=O)(=O)c3ccccc3[N+](=O)[O-])c3ccccc13)=NN2 (centres unmarked) [Compound 13i, 5’-(N-(2-Nitro-benzensulfonyl)-1H-indol-3-yl)-2’,4’-dihydrospiro (indoline-3,3’-pyrazol)-2-one] | – | – | – | – | 97.7% | – | 97.8% | – | 69.4% | 210 to 212 °C | 96.8% | – | –
